In patent US20240166622A1, “FLUORINATED QUINOLINE, QUINOXALINE AND BENZO[B][1,4]OXAZINE DERIVATIVES AS DIHYDROOROTATE DEHYDROGENASE (DHODH) INHIBITORS FOR THE TREATMENT OF CANCER, AUTOIMMUNE AND INFLAMMATORY DISEASES” (Janssen Biotech, Inc., priority 2019, published 2024):

Tests used:
[1] = target: human DHODH (Homo sapiens (Human), UniProt Q02127); assay: DHODH Enzymatic Assay; type: biochemical; conditions: purified human DHODH, DCIP absorbance, end-point mode
Protocol: To detect DHODH enzyme activities, dichloroindophenol (DCIP) is added as the final electron acceptor in the assay. DCIP can accept electrons from the reduced coenzyme Q generated in the assay, or from dihydroorotate (DHO) via FMN by binding presumably to the ubiquinone pocket. […] The assay buffer contained […], pH 7.5, 150 mM NaCl, 0.5 mM EDTA, and 0.1% Triton X-100 in MilliQ water. Substrate consisting of 20 mM DHO, 5 mM CoQ6, and 1 mM DCIP in assay buffer, initiates the reaction. […] Absorbance measurements were obtained using the BMG Phera Star plate-reading spectrophotomer. Purified human DHODH was purchased from Proteros (cat. No. PR-0044). Chemicals were purchased from Sigma-Aldrich, Teknova, and Avanti Polar Lipids. Liquid handling was performed using Labcyte Echo and Formulatrix Tempest.

[2] = tested on: MOLM-13 cells; assay: MOLM-13 Cellular Assay; type: cell-based; conditions: Homo sapiens, 72 hours, cell viability by CellTiter-Glo
Protocol: MOLM-13 cells were obtained from DSMZ and were maintained in RPMI 1640+Glutamax+25 mM HEPES (Invitrogen, catalog number 72400) supplemented with 10% heat inactivated fetal bovine serum (FBS; Invitrogen, catalog number 16140). The day prior to assay set-up, cells were pelleted, resuspended in fresh media, counted, and cells were plated at 0.4×10^6 cell/mL in a T150 flask. On the day of the assay, cells were pelleted, resuspend in fresh media, counted, and seeded at 5,000 cells/well in white opaque 96-well tissue culture treated microplates (Perkin Elmer, catalog number 6005680). Cells were exposed to different concentrations of test compounds at 37° C., 5% CO2 for 72 hours immediately after seeding. Cell viability was acquired on a Perkin Elmer Envision 2104 multilabel reader using the CellTiter-Glo assay (Promega) according to the manufacturer's instructions.

Chain of human DHODH (Q02127 whole entry): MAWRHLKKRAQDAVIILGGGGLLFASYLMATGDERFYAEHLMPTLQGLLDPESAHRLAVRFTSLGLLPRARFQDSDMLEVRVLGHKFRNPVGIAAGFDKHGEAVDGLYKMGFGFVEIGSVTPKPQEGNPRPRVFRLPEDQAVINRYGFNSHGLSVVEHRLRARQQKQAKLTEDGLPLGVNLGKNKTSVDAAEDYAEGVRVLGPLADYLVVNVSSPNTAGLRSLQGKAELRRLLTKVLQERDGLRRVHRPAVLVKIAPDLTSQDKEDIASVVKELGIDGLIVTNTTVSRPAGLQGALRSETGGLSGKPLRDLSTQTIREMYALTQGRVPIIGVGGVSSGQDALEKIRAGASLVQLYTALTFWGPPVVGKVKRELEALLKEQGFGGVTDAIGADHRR

| Structure (SMILES) | IC50 [1] | IC50 [2] |
| --- | --- | --- |
| CCn1c(CO)nn(-c2cc3c(cc2F)N(C(C)=O)C(c2ccccc2C)CC3C(C)C)c1=O (stereo not drawn) [Example 24, 1-(1-Acetyl-7-fluoro-4-isopropyl-2-(o-tolyl)-1,2,3,4-tetrahydroquinolin-6-yl)-4-ethyl-3-(hydroxymethyl)-1H-1,2,4-triazol-5(4H)-one] | 5530 nM | > 100 nM |
| CCn1c(CO)nn(-c2cc3c(cc2F)c(=O)c(-c2ccccc2C)cn3C(C)C)c1=O [Example 10, 7-(4-Ethyl-3-(hydroxymethyl)-5-oxo-4,5-dihydro-TH-1,2,4-triazol-1-yl)-6-fluoro-1-isopropyl-3-(o-tolyl)quinolin-4(1H)-one] |  | 9 nM |
| CCn1c(CO)nn(-c2cc3c(cc2F)[C@@H](O)[C@@H](c2ccccc2C)CN3C(C)C)c1=O (stereo in doubt) [Example 15, 4-Ethyl-2-((3S*,4S*)-6-fluoro-4-hydroxy-1-isopropyl-3-(o-tolyl)-1,2,3,4-tetrahydroquinolin-7-yl)-5-(hydroxymethyl)-2,4-dihydro-3H-1,2,4-triazol-3-one] | 7.9 nM | 4 nM |
| CCn1c(CO)nn(-c2cc3c(cc2F)c(=O)c(-c2cc(C)ccc2F)cn3C(C)C)c1=O [Example 9, 7-(4-Ethyl-3-(hydroxymethyl)-5-oxo-4,5-dihydro-1H-1,2,4-triazol-1-yl)-6-fluoro-3-(2-fluoro-5-methylphenyl)-1-isopropylquinolin-4(1H)-one] | 58.2 nM | > 100 nM |
| CCn1c(CO)nn(-c2cc3c(cc2F)C(O)C(c2ccccc2C)CN3C(C)C)c1=O (racemic) [Example 14, Racemic 4-Ethyl-2-(6-fluoro-4-hydroxy-1-isopropyl-3-(o-tolyl)-1,2,3,4-tetrahydroquinolin-7-yl)-5-(hydroxymethyl)-2,4-dihydro-3H-1,2,4-triazol-3-one] | 5.62 nM | 4 nM |
| CCn1c(CO)nn(-c2cc3c(cc2F)c(=O)c(-c2cccc(F)c2)cn3C(C)C)c1=O [Example 1, 7-(4-Ethyl-3-(hydroxymethyl)-5-oxo-4,5-dihydro-1H-1,2,4-triazol-1-yl)-6-fluoro-3-(3-fluorophenyl)-1-isopropylquinolin-4(1H)-one] | 528 nM | 400 nM |
| CCn1c(CO)nn(-c2ccc3c(c2)N([C@@H](C)C(F)(F)F)C(=O)C(c2ccccc2SC)N3)c1=O (stereo partly drawn) [Example 2, 7-(4-Ethyl-3-(hydroxymethyl)-5-oxo-4,5-dihydro-1H-1,2,4-triazol-1-yl)-3-(2-(methylthio)phenyl)-1-((S)-1,1,1-trifluoropropan-2-yl)-3,4-dihydroquinoxalin-2(1H)-one] | 588 nM | 100 nM |
| CCn1c(CO)nn(-c2cc3c(cc2F)N[C@H](c2ccccc2C)C[C@@H]3C(C)C)c1=O (stereo in doubt) [Example 23, 4-Ethyl-2-((2R*,4S*)-7-fluoro-4-isopropyl-2-(o-tolyl)-1,2,3,4-tetrahydroquinolin-6-yl)-5-(hydroxymethyl)-2,4-dihydro-3H-1,2,4-triazol-3-one] | 49.2 nM | 10 nM |
| CCn1c(CO)nn(-c2ccc3c(c2)N([C@@H](C)C(F)(F)F)C(=O)C(c2c(F)cccc2Cl)N3)c1=O (stereo partly drawn) [Example 3, 3-(2-Chloro-6-fluorophenyl)-7-(4-ethyl-3-(hydroxymethyl)-5-oxo-4,5-dihydro-1H-1,2,4-triazol-1-yl)-1-((S)-1,1,1-trifluoropropan-2-yl)-3,4-dihydroquinoxalin-2(1H)-one] | 293 nM | 100 nM |
| CCn1c(CO)nn(-c2cc3c(cc2F)NC(c2ccccc2C)CC3C(C)C)c1=O (racemic) [Example 13, Racemic 4-Ethyl-2-(7-fluoro-4-isopropyl-2-(o-tolyl)-1,2,3,4-tetrahydroquinolin-6-yl)-5-(hydroxymethyl)-2,4-dihydro-3H-1,2,4-triazol-3-one] | 51.7 nM | 20 nM |
| CCn1c(CO)nn(-c2cc3c(cc2F)N[C@@H](c2ccccc2C)C[C@H]3C(C)C)c1=O (stereo in doubt) [Example 22, 4-Ethyl-2-((2R*,4S*)-7-fluoro-4-isopropyl-2-(0-tolyl)-1,2,3,4-tetrahydroquinolin-6-yl)-5-(hydroxymethyl)-2,4-dihydro-3H-1,2,4-triazol-3-one] | 113 nM | 30 nM |
| CCn1c(CO)nn(-c2cc3c(cc2F)C(=O)C(c2ccccc2C)CN3C(C)C)c1=O (stereo not drawn) [Example 11, 7-(4-Ethyl-3-(hydroxymethyl)-5-oxo-4,5-dihydro-1H-1,2,4-triazol-1-yl)-6-fluoro-1-isopropyl-3-(o-tolyl)-2,3-dihydroquinolin-4(1H)-one] |  | 0.5 nM |
| CCn1c(CO)nn(-c2cc3c(cc2F)[C@H](O)[C@@H](c2ccccc2C)CN3C(C)C)c1=O (stereo in doubt) [Example 17, 4-Ethyl-2-((3S*,4R*)-6-fluoro-4-hydroxy-1-isopropyl-3-(o-tolyl)-1,2,3,4-tetrahydroquinolin-7-yl)-5-(hydroxymethyl)-2,4-dihydro-3H-1,2,4-triazol-3-one] | 173 nM | ~100 nM |
| CCn1c(CO)nn(-c2cc3c(cc2F)OC(c2c(F)cccc2Cl)C(=O)N3C(C)C)c1=O (stereo not drawn) [Example 5, 2-(2-Chloro-6-fluorophenyl)-6-(4-ethyl-3-(hydroxymethyl)-5-oxo-4,5-dihydro-1H-1,2,4-triazol-1-yl)-7-fluoro-4-isopropyl-2H-benzo[b][1,4]oxazin-3(4H)-one] | 42.3 nM | 50 nM |
| CCn1c(CO)nn(-c2cc3c(cc2F)c(=O)c(-c2c(F)cccc2Cl)cn3C(C)C)c1=O [Example 12, 3-(2-Chloro-6-fluorophenyl)-7-(4-ethyl-3-(hydroxymethyl)-5-oxo-4,5-dihydro-1H-1,2,4-triazol-1-yl)-6-fluoro-1-isopropylquinolin-4(1H)-one] |  | 30 nM |

More lines, now with the values ahead:

| IC50 [1] | IC50 [2] | Structure (SMILES) |
| --- | --- | --- |
| 2.24 nM | 2 nM | CCn1c(CO)nn(-c2cc3c(cc2F)[C@H](O)[C@H](c2ccccc2C)CN3C(C)C)c1=O (stereo in doubt) [Example 16, 4-Ethyl-2-((3R*,4R*)-6-fluoro-4-hydroxy-1-isopropyl-3-(o-tolyl)-1,2,3,4-tetrahydroquinolin-7-yl)-5-(hydroxymethyl)-2,4-dihydro-3H-1,2,4-triazol-3-one] |
| 0.504 nM | ~0.3 nM | CCn1c(CO)nn(-c2cc3c(cc2F)OC(c2c(F)cccc2Cl)CN3C(C)C)c1=O (stereo not drawn) [Example 6, 1-(2-(2-Chloro-6-fluorophenyl)-7-fluoro-4-isopropyl-3,4-dihydro-2H-benzo[b][1,4]oxazin-6-yl)-4-ethyl-3-(hydroxymethyl)-1H-1,2,4-triazol-5(4H)-one] |
| 0.256 nM | 0.1 nM | CCn1c(CO)nn(-c2cc3c(cc2F)O[C@@H](c2c(F)cccc2Cl)CN3C(C)C)c1=O (single isomer, unassigned) [Example 7, (S*)-1-(2-(2-Chloro-6-fluorophenyl)-7-fluoro-4-isopropyl-3,4-dihydro-2H-benzo[b][1,4]oxazin-6-yl)-4-ethyl-3-(hydroxymethyl)-1H-1,2,4-triazol-5(4H)-one] |
|  | 3 nM | CCn1c(CO)nn(-c2cc3c(cc2F)[C@@H](O)[C@H](c2ccccc2C)CN3C(C)C)c1=O (stereo in doubt) [Example 18, 4-Ethyl-2-((3R*,4S*)-6-fluoro-4-hydroxy-1-isopropyl-3-(o-tolyl)-1,2,3,4-tetrahydroquinolin-7-yl)-5-(hydroxymethyl)-2,4-dihydro-3H-1,2,4-triazol-3-one] |
| 0.607 nM | 0.5 nM | CCn1c(CO)nn(-c2cc3c(cc2F)C(C)(O)C(c2ccccc2C)CN3C(C)C)c1=O (racemic) [Example 20, Racemic 4-Ethyl-2-(6-fluoro-4-hydroxy-1-isopropyl-4-methyl-3-(o-tolyl)-1,2,3,4-tetrahydroquinolin-7-yl)-5-(hydroxymethyl)-2,4-dihydro-3H-1,2,4-triazol-3-one] |
| 3.71 nM | 2 nM | CCn1c(CO)nn(-c2cc3c(cc2F)C(C)=C(c2ccccc2C)CN3C(C)C)c1=O [Example 21, 4-Ethyl-2-(6-fluoro-1-isopropyl-4-methyl-3-(o-tolyl)-1,2-dihydroquinolin-7-yl)-5-(hydroxymethyl)-2,4-dihydro-3H-1,2,4-triazol-3-one] |
| 5.5 nM | 3 nM | CCn1c(CO)nn(-c2cc3c(cc2F)O[C@H](c2c(F)cccc2Cl)CN3C(C)C)c1=O (single isomer, unassigned) [Example 8, (R*)-1-(2-(2-Chloro-6-fluorophenyl)-7-fluoro-4-isopropyl-3,4-dihydro-2H-benzo[b][1,4]oxazin-6-yl)-4-ethyl-3-(hydroxymethyl)-1H-1,2,4-triazol-5(4H)-one] |
| 2.42 nM | 3 nM | CCn1c(CO)nn(-c2ccc3c(c2)N([C@@H](C)C(F)(F)F)CC(c2c(F)cccc2Cl)N3)c1=O (stereo partly drawn) [Example 4, 2-(2-(2-Chloro-6-fluorophenyl)-4-((S)-1,1,1-trifluoropropan-2-yl)-1,2,3,4-tetrahydroquinoxalin-6-yl)-4-ethyl-5-(hydroxymethyl)-2,4-dihydro-3H-1,2,4-triazol-3-one] |
